In data set [1] the test system is Human colon cancer strain (KM12C). The protocol: (§1) The resulting product was stirred with a stirrer at room temperature for about 10 minutes. […] The proliferated strain was extracted, cut into about 2 to 3 mm square pieces with scissors in physiological saline, and subcutaneously inoculated to the right axillary region of rats of the same strain, 5 to 6 weeks of age, using a transplantation needle. […] Then, drug administration was initiated from the next day. Each of the test liquids shown in (a) to (b) above was administered orally to the rats in each of the test drug groups using a sonde for oral administration at a dose of 0.1 ml per 10 g body weight once a day for 14 continuous days. In the same manner as the above, the cancer-bearing rats in the control group were subjected to oral administration of only 0.5% HPMC liquid for 14 continuous days.
(§2) The tumor volume of each rat in each group before the initiation of the treatment, on day 3, day 5, day 8 (1 week after), day 11, and day 15 (2 weeks after), i.e., after termination of the administration, was calculated using Equation 1 below, and respective relative tumor volume (RTV) relative to the tumor volume at the time of initiation of the treatment was calculated. In relation to the antitumor effect, the average value of the tumor proliferation inhibition ratio (IR; %) was calculated from the average tumor volume of each treatment group on day 15 (after termination of the treatment) relative to that of the control group on day 15, using Equation 2. […] Along therewith, a weight change ratio was calculated from the body weight of the rats at the time of the termination of the drug administration relative to the body weight of the rats at the time of the initiation of the administration, using Equation 3. […] A coagulation inhibitor was added to each of the collected blood samples, and the white blood cell count, red blood cell count, and platelet count were measured using a hemocytometer.

Data set [2] deals with human gastric cancer strain (SC-2). The procedure:
as §1, §2

The target of a further data set is T1, DPD (Rattus norvegicus, UniProt O89000).
T1 construct: the obtained supernatant was used as a DPD enzyme solution or an OPRT enzyme solution; from tissue; host or cells: liver of 8-week old SD rat; 105,000 g supernatant of homogenate
T1 sequence (O89000 1-1025): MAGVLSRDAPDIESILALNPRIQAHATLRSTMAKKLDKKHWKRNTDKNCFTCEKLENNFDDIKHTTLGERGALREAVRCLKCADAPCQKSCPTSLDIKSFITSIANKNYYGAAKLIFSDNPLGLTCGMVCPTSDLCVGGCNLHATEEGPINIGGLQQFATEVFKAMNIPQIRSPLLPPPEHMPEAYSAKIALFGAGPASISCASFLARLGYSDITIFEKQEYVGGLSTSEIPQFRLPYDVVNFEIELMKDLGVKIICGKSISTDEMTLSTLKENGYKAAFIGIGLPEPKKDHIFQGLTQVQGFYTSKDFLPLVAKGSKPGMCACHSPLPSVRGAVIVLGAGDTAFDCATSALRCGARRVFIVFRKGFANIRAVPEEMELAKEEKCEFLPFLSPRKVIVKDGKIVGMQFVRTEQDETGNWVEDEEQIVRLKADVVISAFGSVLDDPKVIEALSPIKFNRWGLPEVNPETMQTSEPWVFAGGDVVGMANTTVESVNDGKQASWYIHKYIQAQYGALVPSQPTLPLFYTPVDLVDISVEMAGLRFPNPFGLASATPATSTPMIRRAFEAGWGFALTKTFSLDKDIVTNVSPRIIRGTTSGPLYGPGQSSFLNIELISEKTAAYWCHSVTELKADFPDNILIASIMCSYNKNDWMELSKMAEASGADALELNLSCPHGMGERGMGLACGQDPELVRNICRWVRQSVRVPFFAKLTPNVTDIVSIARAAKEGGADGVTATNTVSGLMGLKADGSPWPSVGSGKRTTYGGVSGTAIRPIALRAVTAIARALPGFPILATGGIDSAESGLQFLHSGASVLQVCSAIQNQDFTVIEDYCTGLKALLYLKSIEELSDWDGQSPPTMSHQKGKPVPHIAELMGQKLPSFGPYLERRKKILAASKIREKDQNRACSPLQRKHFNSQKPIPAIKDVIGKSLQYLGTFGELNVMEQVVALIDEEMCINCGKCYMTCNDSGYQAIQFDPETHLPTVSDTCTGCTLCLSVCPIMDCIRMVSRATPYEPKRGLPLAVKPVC
Briefly: DPD inhibitory action in vitro (enzyme reaction, tritium-labeled 5-FU as substrate). The data set is classed as biochemical. As to conditions: Conc. 0.02 μM; Table 5.

[3] abbreviates: oral, 14 days, Compound I-11 71 to 88 mg/kg/day, S-1 20 to 22.5 mg/kg/day.

Regarding `CCOCn1cc(F)c(=O)n(C(=O)c2cccc(C(=O)Oc3cc(OC(=O)c4cc(OC(C)=O)nc(OC(C)=O)c4)c(Cl)cn3)c2)c1=O` [Compound I-10, 3-{3-[4-(2,6-diacetyloxyisonicotinoyloxy)-5-chloro-2-pyridyloxycarbonyl]benzoyl}-1-ethoxymethyl-5-fluorouracil], the antitumor effect result in data set [1] (oral, 14 days, Compound I-10 51 to 77 mg/kg/day, S-1 15 to 22.5 mg/kg/day, FIG. 2-1) is listed as “high antitumor effects in a dose-dependent manner”. In data set [1] (rat, in vivo), the diarrhea result was “not observed”, the “platelet count relative to that of the control group” value was “the same as that of the control group” and the weight loss result was “not observed”.
As for `CCOCn1cc(F)c(=O)n(C(=O)c2cccc(C(=O)Oc3cc(OC(=O)c4cc(OC(=O)CC)nc(OC(=O)CC)c4)c(Cl)cn3)c2)c1=O` [Compound I-11, 3-{3-[4-(2,6-dipropionyloxyisonicotinoyloxy)-5-chloro-2-pyridyloxycarbonyl]benzoyl}-1-ethoxymethyl-5-fluorouracil], the “white blood cell count, reduced to % of that of the control group” value in data set [2] (71 to 88 mg/kg/day orally for 2 weeks, FIG. 1-2) is given as “about 50%”. In addition, in data set [2] (oral, 2 weeks, Compound I-11 71 to 88 mg/kg/day, S-1 20 to 22.5 mg/kg/day, FIG. 1-2), the “platelet count relative to that of the control group” value was “almost the same as that of the control group”. For the same compound, the toxic death entry in data set [2] (oral, 14 days, Compound I-11 71 to 88 mg/kg/day) is recorded as “not observed”. In addition, in data set [2] (setting [3]), the diarrhea result is “not observed” and the weight loss entry is recorded as “not observed”. Also, the antitumor effect entry in data set [2] (oral, 14 days, Compound I-11 71 to 88 mg/kg/day, S-1 20 to 22.5 mg/kg/day, FIG. 1-1) is on record as “high antitumor effects in a dose-dependent manner”. In addition, at DPD, the “DPD Inhibitory Activity: Activity” value is 0.705 nmol/mL/min and the inhibition (usually the relative decrease from the control value, in per cent) at 0.02 µM worked out at 0%.

(Values after patent publication US8889699B2, “5-fluorouracil derivative” (Delta-Fly Pharma, Inc., priority 2009, dated 2014).)
